From patent US11865099B2, “Product based on iron bis-glycinate chelate and alginic acid and/or water-soluble salts thereof, formulations thereof, and pharmaceutical uses thereof” (LABORATORI BALDACCI S.P.A., priority 2015, dated 2024)

Assay: Iron dissolution test, rotating basket apparatus, sample in dialysis membrane, 0.01 N HCl
Type: physicochemical
Details: for percentage of dissolved iron: after 120 minutes; for dissolution rate: sample in 1.0 ml 0.01 N HCl (method A) in dialysis membrane, linear trend
[1] = 1.0 ml 0.01 N HCl, dialysis membrane

Experimental: The dissolution test was performed with rotating basket apparatus according to Eur. Pharmacopoeia 9th Edition choosing hydrochloric acid to simulate the gastric fluid.
A first series of assays were performed placing the product into a dialysis membrane with adequate volumes of hydrochloric acid (1.0 or 2.0 ml). In this case, the dissolution medium was 0.01 N (pH=2) hydrochloric acid, as the dialysis membrane is not compatible with pH values lower than 2.
Experimental method: the dialysis membrane (Spectrum Labs Spectra/Por 3; MWCO; 3500 kDa) was hydrated for one night (16 hours) in deionized water before the test. […] The bags were closed and placed into the basket of the dissolution apparatus.
Then, the basket was immersed in 100 ml of 0.01 N HCl and the dissolution test was carried out at a temperature of 37° C. with a rotation speed of 75 rpm/min, withdrawing, at appropriate times, samples of dissolution phase that were immediately replaced with fresh solvent in order to maintain constant sink condition.
Experimental method: after hydration of the dialysis membrane for one night in deionized water, three exactly weighted samples of Feralgina® having different weights (range 20-30 mg) were dissolved with 1.0 ml (method A) or with 2.0 ml (method B) of hydrochloric acid (0.01 N) and the resulting solutions were placed into the hydrated dialysis membrane. The bags were perfectly closed and placed into the basket of the dissolution apparatus. […] The basket was immersed in 100 ml of 0.01 N HCl at a temperature of 37° C., with a rotation speed of 75 rpm/min, collecting samples of dissolution medium at appropriate times immediately replaced with fresh solvent in order to keep the dissolution constant (sink condition).
The dissolution tests of TecnoFERPlus were performed with two different experimental methods that involved, in one case, the use of the dialysis membrane and experimental conditions similarly to those followed for iron sulfate and iron bisglycinate with different volumes of hydrochloric acid 0.01 N, and in the second one, the use of TecnoFERPlus (capsule) without the dialysis membrane.

| Compound | amount of iron dissolved in the medium, of the total content (after 15 minutes, 1.0 ml 0.01 N HCl, dialysis membrane) | percentage of dissolved iron [1] | dissolution rate |
| --- | --- | --- | --- |
| NCC(=O)[O][Fe][O]C(=O)CN [Iron bis-glycinate chelate] | about 20% | about 60% | 0.378 min⁻¹ |
| O=S(=O)([O-])[O-].[Fe+2] [iron sulphate] |  | about 61% | 0.439 min⁻¹ |
